According to the supplement of paper PMC8253809:

Tests used:
DIPGX9 [1] = diffuse intrinsic pontine glioma line; assay: area under dose-response curve of % growth inhibition (log2 RLU vs DMSO / staurosporine), 1e-11 to 1e-4 M (% x log10 M); higher = more growth inhibition
Procedure, shortened: (§1)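 Patient-derived pHGG/DIPG cell lines and astrocytes, cultured on 384-well plates with a 1% Geltrex coating, were given a 10-point threefold dilution series (mean top concentration 35 μM) in triplicate for 7 days (iAstro 3 days) at 37 °C, 5% CO2. CellTiter-Glo signal, log2-transformed and normalised per plate to % activity against solvent and positive controls, was fitted with a log-logistic curve or, where the sigmoid fit failed, a smoothing spline. Area under the curve was then computed by the trapezoid rule.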

DIPGX29 [2] = H3.3 K27M diffuse intrinsic pontine glioma line; assay: as above
Procedure, shortened: as §1

SUDIPGXIX [3] = diffuse intrinsic pontine glioma line; assay: as above
Procedure, shortened: as §1

HGGX2 [4] = paediatric high-grade glioma line; assay: as above
Procedure, shortened: as §1

iAstro [5] = astrocyte control; assay: as above
Procedure, shortened: as §1

HGGX39 [6] = paediatric high-grade glioma line; assay: as above
Procedure, shortened: as §1

HABS [7] = astrocyte control; assay: as above
Procedure, shortened: as §1

SUDIPGVI [8] = diffuse intrinsic pontine glioma line; assay: as above
Procedure, shortened: as §1

DIPGX37 [9] = H3.3 K27M diffuse intrinsic pontine glioma line; assay: as above
Procedure, shortened: as §1

DIPGX7 [10] = H3.3 K27M diffuse intrinsic pontine glioma line; assay: as above
Procedure, shortened: as §1

SUDIPGXIII [11] = diffuse intrinsic pontine glioma line; assay: as above
Procedure, shortened: as §1

SUDIPGXXI [12] = diffuse intrinsic pontine glioma line; assay: as above
Procedure, shortened: as §1

SUDIPGXVII [13] = diffuse intrinsic pontine glioma line; assay: as above
Procedure, shortened: as §1

SUDIPGIV [14] = diffuse intrinsic pontine glioma line; assay: as above
Procedure, shortened: as §1

HGGX42 [15] = H3.3 G34R paediatric high-grade glioma line; assay: as above
Procedure, shortened: as §1

HGGX6 [16] = H3.3 G34R paediatric high-grade glioma line; assay: as above
Procedure, shortened: as §1

DIPGX9 [17] = assay: maximal growth inhibition (yFin) relative to DMSO / staurosporine; higher = more efficacious
Procedure, shortened: (§2)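 Viability readout was CellTiter-Glo luminescence, log2-transformed, normalised per plate to % activity between negative (solvent) and positive control wells, then pooled. This followed a 7-day exposure (3 days for iAstro) at 37 °C, 5% CO2 to a 10-point threefold dilution series (mean top concentration 35 μM), pin-tool delivered in triplicate to patient-derived pHGG/DIPG cell lines and astrocyte controls on 1% Geltrex-coated 384-well plates. Three- and four-parameter log-logistic fits were compared, and the one with the lowest AICc supplied EC50 and maximal response (yFin).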

DIPGX29 [18] = assay: as above
Procedure, shortened: as §2

SUDIPGXIX [19] = assay: as above
Procedure, shortened: as §2

HGGX39 [20] = assay: as above
Procedure, shortened: as §2

DIPGX37 [21] = assay: as above
Procedure, shortened: as §2

DIPGX7 [22] = assay: as above
Procedure, shortened: as §2

SUDIPGXIII [23] = assay: as above
Procedure, shortened: as §2

SUDIPGXXI [24] = assay: as above
Procedure, shortened: as §2

SUDIPGIV [25] = assay: as above
Procedure, shortened: as §2

HGGX42 [26] = assay: as above
Procedure, shortened: as §2

DIPGX9 [27] = assay: EC50 (inflection of fitted growth-inhibition curve) (log10 M)
Procedure, shortened: as §2

DIPGX29 [28] = assay: as above
Procedure, shortened: as §2

SUDIPGXIX [29] = assay: as above
Procedure, shortened: as §2

HGGX39 [30] = assay: as above
Procedure, shortened: as §2

DIPGX37 [31] = assay: as above
Procedure, shortened: as §2

DIPGX7 [32] = assay: as above
Procedure, shortened: as §2

SUDIPGXIII [33] = assay: as above
Procedure, shortened: as §2

SUDIPGXXI [34] = assay: as above
Procedure, shortened: as §2

SUDIPGIV [35] = assay: as above
Procedure, shortened: as §2

HGGX42 [36] = assay: as above
Procedure, shortened: as §2

SUDIPGVI [37] = assay: maximal growth inhibition (yFin) relative to DMSO / staurosporine; higher = more efficacious
Procedure, shortened: as §2

SUDIPGXVII [38] = assay: as above
Procedure, shortened: as §2

HGGX6 [39] = assay: as above
Procedure, shortened: as §2

SUDIPGVI [40] = assay: EC50 (inflection of fitted growth-inhibition curve) (log10 M)
Procedure, shortened: as §2

SUDIPGXVII [41] = assay: as above
Procedure, shortened: as §2

HGGX6 [42] = assay: as above
Procedure, shortened: as §2

HGGX2 [43] = assay: maximal growth inhibition (yFin) relative to DMSO / staurosporine; higher = more efficacious
Procedure, shortened: as §2

iAstro [44] = assay: as above
Procedure, shortened: as §2

HABS [45] = assay: as above
Procedure, shortened: as §2

HGGX2 [46] = assay: EC50 (inflection of fitted growth-inhibition curve) (log10 M)
Procedure, shortened: as §2

iAstro [47] = assay: as above
Procedure, shortened: as §2

HABS [48] = assay: as above
Procedure, shortened: as §2

Cn1cnc([N+](=O)[O-])c1Sc1ncnc2[nH]cnc12 [AZATHIOPRINE]
area under dose-response curve (DIPGX9 [1]): 52.8
area under dose-response curve (DIPGX29 [2]): 119
area under dose-response curve (SUDIPGXIX [3]): 42.2
area under dose-response curve (HGGX2 [4]): 49.3
area under dose-response curve (iAstro [5]): 6.8
area under dose-response curve (HGGX39 [6]): 80.7
area under dose-response curve (HABS [7]): 15.3
area under dose-response curve (SUDIPGVI [8]): 29
area under dose-response curve (DIPGX37 [9]): 87.5
area under dose-response curve (DIPGX7 [10]): 35.7
area under dose-response curve (SUDIPGXIII [11]): 38.7
area under dose-response curve (SUDIPGXXI [12]): 119
area under dose-response curve (SUDIPGXVII [13]): 37.4
area under dose-response curve (SUDIPGIV [14]): 60
area under dose-response curve (HGGX42 [15]): 51
area under dose-response curve (HGGX6 [16]): 50.7
maximal growth inhibition (DIPGX9 [17]): 27.4%
maximal growth inhibition (DIPGX29 [18]): 55.9%
maximal growth inhibition (SUDIPGXIX [19]): 25.4%
maximal growth inhibition (HGGX39 [20]): 52.1%
maximal growth inhibition (DIPGX37 [21]): 53.7%
maximal growth inhibition (DIPGX7 [22]): 32.3%
maximal growth inhibition (SUDIPGXIII [23]): 21%
maximal growth inhibition (SUDIPGXXI [24]): 43.4%
maximal growth inhibition (SUDIPGIV [25]): 34%
maximal growth inhibition (HGGX42 [26]): 23.2%
EC50 (log10 M) (DIPGX9 [27]): -5.87
EC50 (log10 M) (DIPGX29 [28]): -6.11
EC50 (log10 M) (SUDIPGXIX [29]): -6.06
EC50 (log10 M) (HGGX39 [30]): -5.65
EC50 (log10 M) (DIPGX37 [31]): -5.6
EC50 (log10 M) (DIPGX7 [32]): -5.08
EC50 (log10 M) (SUDIPGXIII [33]): -6.03
EC50 (log10 M) (SUDIPGXXI [34]): -6.73
EC50 (log10 M) (SUDIPGIV [35]): -5.75
EC50 (log10 M) (HGGX42 [36]): -6.39

CC(C)C[C@H](NC(=O)[C@H](Cc1ccccc1)NC(=O)c1cnccn1)B(O)O [BORTEZOMIB]
area under dose-response curve (DIPGX9 [1]): 571
area under dose-response curve (DIPGX29 [2]): 287
area under dose-response curve (SUDIPGXIX [3]): 568
area under dose-response curve (HGGX2 [4]): 450
area under dose-response curve (iAstro [5]): 461
area under dose-response curve (HGGX39 [6]): 455
area under dose-response curve (HABS [7]): 506
area under dose-response curve (SUDIPGVI [8]): 499
area under dose-response curve (DIPGX37 [9]): 493
area under dose-response curve (DIPGX7 [10]): 575
area under dose-response curve (SUDIPGXIII [11]): 491
area under dose-response curve (SUDIPGXXI [12]): 634
area under dose-response curve (SUDIPGXVII [13]): 392
area under dose-response curve (SUDIPGIV [14]): 581
area under dose-response curve (HGGX42 [15]): 312
area under dose-response curve (HGGX6 [16]): 347
maximal growth inhibition (SUDIPGVI [37]): 95.6%
maximal growth inhibition (SUDIPGXIII [23]): 96.5%
maximal growth inhibition (SUDIPGXVII [38]): 91.2%
maximal growth inhibition (HGGX6 [39]): 91.4%
EC50 (log10 M) (SUDIPGVI [40]): -9.92
EC50 (log10 M) (SUDIPGXIII [33]): -9.99
EC50 (log10 M) (SUDIPGXVII [41]): -8.34
EC50 (log10 M) (HGGX6 [42]): -7.84

CS[C@H]1SC[C@H]2C(=O)N(C)[C@@H](C(C)C)C(=O)OC[C@@H](NC(=O)c3cnc4ccccc4n3)C(=O)N[C@@H](C)C(=O)N(C)[C@@H]1C(=O)N(C)[C@@H](C(C)C)C(=O)OC[C@@H](NC(=O)c1cnc3ccccc3n1)C(=O)N[C@@H](C)C(=O)N2C [ECHINOMYCIN]
area under dose-response curve (DIPGX9 [1]): 510
area under dose-response curve (DIPGX29 [2]): 489
area under dose-response curve (SUDIPGXIX [3]): 520
area under dose-response curve (HGGX2 [4]): 383
area under dose-response curve (iAstro [5]): 139
area under dose-response curve (HGGX39 [6]): 507
area under dose-response curve (HABS [7]): 371
area under dose-response curve (SUDIPGVI [8]): 399
area under dose-response curve (DIPGX37 [9]): 508
area under dose-response curve (DIPGX7 [10]): 488
area under dose-response curve (SUDIPGXIII [11]): 335
area under dose-response curve (SUDIPGXXI [12]): 577
area under dose-response curve (SUDIPGXVII [13]): 425
area under dose-response curve (SUDIPGIV [14]): 505
area under dose-response curve (HGGX42 [15]): 432
area under dose-response curve (HGGX6 [16]): 337
maximal growth inhibition (SUDIPGVI [37]): 71%
maximal growth inhibition (SUDIPGXIII [23]): 70.4%
maximal growth inhibition (SUDIPGXVII [38]): 96.4%
maximal growth inhibition (HGGX42 [26]): 76.3%
maximal growth inhibition (HGGX6 [39]): 75.4%
EC50 (log10 M) (SUDIPGVI [40]): -10.8
EC50 (log10 M) (SUDIPGXIII [33]): -8.75
EC50 (log10 M) (SUDIPGXVII [41]): -8.81
EC50 (log10 M) (HGGX42 [36]): < -11
EC50 (log10 M) (HGGX6 [42]): -8.49

CO[C@H]1C[C@@H]2CC[C@@H](C)[C@@](O)(O2)C(=O)C(=O)N2CCCC[C@H]2C(=O)O[C@H]([C@H](C)C[C@@H]2CC[C@@H](OCCO)[C@H](OC)C2)CC(=O)[C@H](C)/C=C(\C)[C@@H](O)[C@@H](OC)C(=O)[C@H](C)C[C@H](C)/C=C/C=C/C=C/1C [EVEROLIMUS]
area under dose-response curve (DIPGX9 [1]): 149
area under dose-response curve (DIPGX29 [2]): 95.9
area under dose-response curve (SUDIPGXIX [3]): 72
area under dose-response curve (HGGX2 [4]): 78.5
area under dose-response curve (iAstro [5]): 96.6
area under dose-response curve (HGGX39 [6]): 99.1
area under dose-response curve (HABS [7]): 54.8
area under dose-response curve (SUDIPGVI [8]): 113
area under dose-response curve (DIPGX37 [9]): 103
area under dose-response curve (DIPGX7 [10]): 75.4
area under dose-response curve (SUDIPGXIII [11]): 92.4
area under dose-response curve (SUDIPGXXI [12]): 203
area under dose-response curve (SUDIPGXVII [13]): 74.4
area under dose-response curve (SUDIPGIV [14]): 97.4
area under dose-response curve (HGGX42 [15]): 107
area under dose-response curve (HGGX6 [16]): 62.9
maximal growth inhibition (DIPGX29 [18]): 107%
maximal growth inhibition (SUDIPGXIX [19]): 90.9%
maximal growth inhibition (HGGX2 [43]): 94.8%
maximal growth inhibition (iAstro [44]): 85%
maximal growth inhibition (HGGX39 [20]): 97.2%
maximal growth inhibition (HABS [45]): 86.6%
maximal growth inhibition (DIPGX37 [21]): 100%
maximal growth inhibition (DIPGX7 [22]): 98.8%
maximal growth inhibition (SUDIPGXIII [23]): 85.2%
maximal growth inhibition (SUDIPGXVII [38]): 73.8%
maximal growth inhibition (SUDIPGIV [25]): 87.7%
maximal growth inhibition (HGGX42 [26]): 95.7%
maximal growth inhibition (HGGX6 [39]): 50%
EC50 (log10 M) (DIPGX29 [28]): -4.57
EC50 (log10 M) (SUDIPGXIX [29]): -4.79
EC50 (log10 M) (HGGX2 [46]): -4.67
EC50 (log10 M) (iAstro [47]): -4.83
EC50 (log10 M) (HGGX39 [30]): -4.56
EC50 (log10 M) (HABS [48]): -4.63
EC50 (log10 M) (DIPGX37 [31]): -4.6
EC50 (log10 M) (DIPGX7 [32]): -4.76
EC50 (log10 M) (SUDIPGXIII [33]): -4.77
EC50 (log10 M) (SUDIPGXVII [41]): -4.83
EC50 (log10 M) (SUDIPGIV [35]): -4.85
EC50 (log10 M) (HGGX42 [36]): -4.78
EC50 (log10 M) (HGGX6 [42]): -4.78
